Test results: patent US8962596B2 (Array BioPharma Inc., priority 2010, dated 2015)

How the values were obtained:
Assay type in all cases: biochemical
[1] = target: T1, JAK1 (Homo sapiens, UniProt P23458); assay: JAK1 Inhibition Assay (Omnia kinase fluorescence peptide substrate assay); conditions: averaged IC50 ranges; assay of Example B; 40 μM (Km app) or 1 mM ATP, 15 nM JAK1
T1 construct: purchased Invitrogen Corporation, Carlsbad, Calif; PV4775

[2] = target: T2, Human Tyk2 kinase domain (Homo sapiens, UniProt P29597); assay: Tyk2 Inhibition Assay (Omnia kinase fluorescence peptide substrate assay); conditions: averaged IC50 ranges; assay of Example A; 10 μM (Km app) or 1 mM ATP, 2 nM Tyk2
T2 construct: comprising amino acids 886 to 1187 with 10 additional histidine residues; 10xHis (histidine tag) (C, cleaved yes); made in house
T2 sequence (P29597 886-1187): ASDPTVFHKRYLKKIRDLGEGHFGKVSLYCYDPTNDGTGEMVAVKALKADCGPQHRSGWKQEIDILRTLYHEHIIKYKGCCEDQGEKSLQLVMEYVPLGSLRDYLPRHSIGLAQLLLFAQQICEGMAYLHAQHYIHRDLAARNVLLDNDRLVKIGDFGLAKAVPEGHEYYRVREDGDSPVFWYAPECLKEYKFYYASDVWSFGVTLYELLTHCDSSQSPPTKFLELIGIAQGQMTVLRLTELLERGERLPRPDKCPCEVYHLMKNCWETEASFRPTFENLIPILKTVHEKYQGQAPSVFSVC
In short: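 2 nM His-tag-cleaved kinase domain (aa 886–1187) with 8 μM Omnia Y12 peptide, 10 μM (Km app) or 1 mM ATP, pH 7.4 HEPES/10 mM MgCl2, 2% DMSO. Fluorescence (ex 360/em 485 nm) every 50 s for 45 min; IC50 from 4-parameter fit of POC, top dose 10 μM.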

[3] = target: T3, JAK2 (Homo sapiens, UniProt O60674); assay: JAK2 Inhibition Assay (Omnia kinase fluorescence peptide substrate assay); conditions: averaged IC50 ranges; assay of Example C; 25 μM (Km app) or 1 mM ATP, 5 nM JAK2
T3 construct: purchased Invitrogen Corporation, Carlsbad, Calif; PV4288
T3 sequence (O60674 whole entry): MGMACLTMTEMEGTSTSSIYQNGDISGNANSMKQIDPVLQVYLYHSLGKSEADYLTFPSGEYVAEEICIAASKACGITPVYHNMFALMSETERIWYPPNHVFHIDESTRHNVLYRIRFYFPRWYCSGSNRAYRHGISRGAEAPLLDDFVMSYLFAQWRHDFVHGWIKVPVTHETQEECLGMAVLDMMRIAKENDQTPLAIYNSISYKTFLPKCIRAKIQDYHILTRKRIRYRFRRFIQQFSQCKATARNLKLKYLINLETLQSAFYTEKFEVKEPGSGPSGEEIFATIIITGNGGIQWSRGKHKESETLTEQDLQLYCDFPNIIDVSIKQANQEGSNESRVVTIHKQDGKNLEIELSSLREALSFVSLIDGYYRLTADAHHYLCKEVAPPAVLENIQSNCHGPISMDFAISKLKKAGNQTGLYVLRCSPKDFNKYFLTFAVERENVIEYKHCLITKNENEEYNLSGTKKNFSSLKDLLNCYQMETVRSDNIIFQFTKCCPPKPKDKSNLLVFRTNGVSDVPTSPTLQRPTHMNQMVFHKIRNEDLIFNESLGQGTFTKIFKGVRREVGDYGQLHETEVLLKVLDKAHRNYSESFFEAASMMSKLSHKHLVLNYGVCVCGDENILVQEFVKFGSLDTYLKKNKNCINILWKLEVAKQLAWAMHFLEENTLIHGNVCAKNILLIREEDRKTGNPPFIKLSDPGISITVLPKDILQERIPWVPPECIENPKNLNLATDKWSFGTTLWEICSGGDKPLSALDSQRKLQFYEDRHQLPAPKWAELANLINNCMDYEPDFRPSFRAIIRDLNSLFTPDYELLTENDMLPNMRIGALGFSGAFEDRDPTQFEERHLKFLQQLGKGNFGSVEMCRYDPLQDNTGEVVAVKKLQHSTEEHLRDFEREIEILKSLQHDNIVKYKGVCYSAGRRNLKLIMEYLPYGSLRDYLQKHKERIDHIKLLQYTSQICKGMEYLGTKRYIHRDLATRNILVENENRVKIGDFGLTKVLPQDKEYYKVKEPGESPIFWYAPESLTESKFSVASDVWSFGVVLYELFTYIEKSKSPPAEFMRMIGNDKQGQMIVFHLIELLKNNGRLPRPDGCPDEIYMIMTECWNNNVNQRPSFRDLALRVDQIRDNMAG
In short: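 5 nM JAK2 phosphorylated 10 μM Omnia Y7 peptide with ATP at 25 μM (Km app) or 1 mM, in 25 mM HEPES pH 7.4, 10 mM MgCl2, 0.01% Triton X-100, 1 mM DTT, 2% DMSO. Fluorescence (360/485 nm) was read every 50 s for 45 min. 10-point 3-fold series from 10 μM; POC versus uninhibited and background controls, 4-parameter logistic IC50.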

[4] = target: T4, JAK3 (Homo sapiens, UniProt P52333); assay: JAK3 Inhibition Assay (Omnia kinase fluorescence peptide substrate assay); conditions: averaged IC50 ranges; assay of Example D; 10 μM (Km app) or 1 mM ATP, 2.5 nM JAK3
T4 construct: purchased Invitrogen Corporation, Carlsbad, Calif; PV4080
T4 sequence (P52333 1-1124): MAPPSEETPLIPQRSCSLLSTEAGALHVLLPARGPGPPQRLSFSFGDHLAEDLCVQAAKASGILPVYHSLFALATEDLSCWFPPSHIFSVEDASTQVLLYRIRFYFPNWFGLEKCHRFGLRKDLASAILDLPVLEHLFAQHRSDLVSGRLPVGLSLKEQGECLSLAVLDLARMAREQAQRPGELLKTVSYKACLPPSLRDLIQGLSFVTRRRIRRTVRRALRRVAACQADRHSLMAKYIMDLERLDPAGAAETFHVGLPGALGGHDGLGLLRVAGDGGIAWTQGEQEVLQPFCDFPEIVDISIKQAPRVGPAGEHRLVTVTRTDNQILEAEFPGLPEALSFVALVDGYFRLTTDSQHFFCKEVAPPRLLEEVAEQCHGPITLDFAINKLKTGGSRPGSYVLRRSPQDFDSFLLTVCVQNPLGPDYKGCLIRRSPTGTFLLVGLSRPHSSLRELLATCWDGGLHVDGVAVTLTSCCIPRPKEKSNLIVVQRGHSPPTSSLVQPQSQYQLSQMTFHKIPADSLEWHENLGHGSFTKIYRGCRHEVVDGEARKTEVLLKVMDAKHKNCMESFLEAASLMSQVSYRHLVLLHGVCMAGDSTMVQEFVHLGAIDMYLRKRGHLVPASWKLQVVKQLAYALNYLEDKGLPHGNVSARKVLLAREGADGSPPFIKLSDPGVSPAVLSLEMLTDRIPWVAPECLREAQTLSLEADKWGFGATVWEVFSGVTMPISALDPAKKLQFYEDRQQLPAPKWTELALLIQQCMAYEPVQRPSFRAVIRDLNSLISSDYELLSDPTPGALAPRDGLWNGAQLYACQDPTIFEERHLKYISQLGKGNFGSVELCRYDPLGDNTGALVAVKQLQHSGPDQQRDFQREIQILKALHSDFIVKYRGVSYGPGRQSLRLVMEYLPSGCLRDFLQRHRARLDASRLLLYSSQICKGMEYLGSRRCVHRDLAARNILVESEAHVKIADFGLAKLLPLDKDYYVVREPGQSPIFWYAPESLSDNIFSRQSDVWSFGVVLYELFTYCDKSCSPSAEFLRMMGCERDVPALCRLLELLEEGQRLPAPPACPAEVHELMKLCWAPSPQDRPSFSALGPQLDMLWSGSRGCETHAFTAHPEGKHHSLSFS
In short: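 Kinase at 2.5 nM with 10 µM Omnia Y7 peptide and 10 µM (Km app) or 1 mM ATP in 25 mM HEPES pH 7.4, 10 mM MgCl2, 1 mM DTT, 0.01% Triton X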

T1 sequence (P23458 whole entry): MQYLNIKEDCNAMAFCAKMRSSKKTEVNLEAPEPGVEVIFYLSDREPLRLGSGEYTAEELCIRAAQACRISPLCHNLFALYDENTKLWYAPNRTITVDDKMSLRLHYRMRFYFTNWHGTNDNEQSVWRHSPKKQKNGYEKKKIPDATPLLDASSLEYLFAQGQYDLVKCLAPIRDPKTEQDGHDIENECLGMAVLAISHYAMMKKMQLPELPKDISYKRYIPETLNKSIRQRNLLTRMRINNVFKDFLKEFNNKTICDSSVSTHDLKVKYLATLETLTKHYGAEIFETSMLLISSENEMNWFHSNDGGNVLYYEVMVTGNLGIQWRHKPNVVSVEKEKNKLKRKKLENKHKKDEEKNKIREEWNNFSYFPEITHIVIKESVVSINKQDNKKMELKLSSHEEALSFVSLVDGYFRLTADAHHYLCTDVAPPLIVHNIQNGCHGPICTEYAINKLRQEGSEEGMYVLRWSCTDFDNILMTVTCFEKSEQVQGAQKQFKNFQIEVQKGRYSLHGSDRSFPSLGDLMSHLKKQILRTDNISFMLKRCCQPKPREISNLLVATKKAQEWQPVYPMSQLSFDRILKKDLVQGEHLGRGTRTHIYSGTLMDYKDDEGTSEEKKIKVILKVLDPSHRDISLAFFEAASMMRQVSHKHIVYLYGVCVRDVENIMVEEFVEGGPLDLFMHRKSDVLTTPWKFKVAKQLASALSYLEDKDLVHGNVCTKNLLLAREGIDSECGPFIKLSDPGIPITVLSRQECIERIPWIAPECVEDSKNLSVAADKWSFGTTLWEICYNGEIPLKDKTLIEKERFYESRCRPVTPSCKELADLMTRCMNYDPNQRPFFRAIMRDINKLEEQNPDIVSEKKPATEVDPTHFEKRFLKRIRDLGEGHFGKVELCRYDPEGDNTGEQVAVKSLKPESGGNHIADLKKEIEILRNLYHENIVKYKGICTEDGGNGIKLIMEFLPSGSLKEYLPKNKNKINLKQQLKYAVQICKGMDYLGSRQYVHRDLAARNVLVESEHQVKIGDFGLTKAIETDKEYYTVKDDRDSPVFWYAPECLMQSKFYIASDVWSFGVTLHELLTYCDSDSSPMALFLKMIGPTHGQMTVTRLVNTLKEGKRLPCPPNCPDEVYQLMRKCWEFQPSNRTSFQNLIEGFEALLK

With `Cn1cc(-c2cc3nccn3c(-c3cnn(C(CC#N)CC#N)c3)n2)cn1` [Example 1, 3-(4-(7-(1-methyl-1H-pyrazol-4-yl)imidazo[1,2-c]pyrimidin-5-yl)-1H-pyrazol-1-yl)pentanedinitrile] the IC50 [1] was 10 to 100 nM, the IC50 [2] was under 10 nM and the IC50 [3] was 10 to 100 nM. For the same compound, the IC50 [4] was 100 to 1000 nM.
`Cc1ncc(-c2cc3nccn3c(-c3cnn(C4(CC#N)CN(S(=O)(=O)C5CC5)C4)c3)n2)s1` [Example 140, 2-(1-(cyclopropylsulfonyl)-3-(4-(7-(2-methylthiazol-5-yl)imidazo[1,2-c]pyrimidin-5-yl)-1H-pyrazol-1-yl)azetidin-3-yl)acetonitrile] gave an IC50 [1] of 10 to 100 nM, an IC50 [2] of under 10 nM and an IC50 [3] of 10 to 100 nM. It also gave an IC50 [4] of over 1000 nM.
Compound `Cn1cc(-c2cc3nccn3c(-c3cnn(C4(CC#N)CN(CC5CCC5)C4)c3)n2)cn1` [Example 87, 2-(1-(cyclobutylmethyl)-3-(4-(7-(1-methyl-1H-pyrazol-4-yl)imidazo[1,2-c]pyrimidin-5-yl)-1H-pyrazol-1-yl)azetidin-3-yl)acetonitrile] has an IC50 [1] of over 1000 nM, an IC50 [2] of 10 to 100 nM and an IC50 [3] of 100 to 1000 nM. For the same compound, the IC50 [4] was over 1000 nM.
In the case of `Cc1c(-c2nc(-c3cnn(C)c3)cc3nccn23)cnn1CCC#N` [Example 107, 3-(5-methyl-4-(7-(1-methyl-1H-pyrazol-4-yl)imidazo[1,2-c]pyrimidin-5-yl)-1H-pyrazol-1-yl)propanenitrile], the IC50 [1] is reported as over 1000 nM, the IC50 [2] is reported as 100 to 1000 nM and the IC50 [3] is reported as over 1000 nM. It also gave an IC50 [4] of over 1000 nM.
In the case of `Cn1cc(-c2cc3nccn3c(-c3ccn(C4(CC#N)CN(CC(F)(F)F)C4)c3)n2)cn1` [Example 128, 2-(3-(3-(7-(1-Methyl-1H-pyrazol-4-yl)imidazo[1,2-c]pyrimidin-5-yl)-1H-pyrrol-1-yl)-1-(2,2,2-trifluoroethyl)azetidin-3-yl)acetonitrile], the IC50 [1] is reported as 100 to 1000 nM, the IC50 [2] is reported as under 10 nM and the IC50 [3] is reported as 10 to 100 nM. For the same compound, the IC50 [4] was over 1000 nM.
`Cn1cc(-c2cc3nccn3c(-c3cnn(C4(CC#N)CC5(COC5)C4)c3)n2)cn1` [Example 148, 2-(6-(4-(7-(1-methyl-1H-pyrazol-4-yl)imidazo[1,2-c]pyrimidin-5-yl)-1H-pyrazol-1-yl)-2-oxaspiro[3.3]heptan-6-yl)acetonitrile] was tested, and the IC50 [1] was 100 to 1000 nM, the IC50 [2] was under 10 nM and the IC50 [3] was 10 to 100 nM. For the same compound, the IC50 [4] was over 1000 nM.
`Cn1cc(-c2cc3nccn3c(-c3cnn(C4(CC#N)CN(CC5CC5)C4)c3)n2)cn1` [Example 84, 2-(1-(cyclopropylmethyl)-3-(4-(7-(1-methyl-1H-pyrazol-4-yl)imidazo[1,2-c]pyrimidin-5-yl)-1H-pyrazol-1-yl)azetidin-3-yl)acetonitrile] gave an IC50 [1] of 100 to 1000 nM, an IC50 [2] of under 10 nM and an IC50 [3] of 10 to 100 nM. For the same compound, the IC50 [4] was over 1000 nM.
Compound `CN1CC(CC#N)(n2cc(-c3nc(-c4cnn(C)c4)cc4nccn34)cn2)C1` [Example 83, 2-(1-methyl-3-(4-(7-(1-methyl-1H-pyrazol-4-yl)imidazo[1,2-c]pyrimidin-5-yl)-1H-pyrazol-1-yl)azetidin-3-yl)acetonitrile] has an IC50 [1] of over 1000 nM, an IC50 [2] of 10 to 100 nM and an IC50 [3] of 100 to 1000 nM. It also gave an IC50 [4] of over 1000 nM.
Work on `CC#CCN1CC(CC#N)(n2cc(-c3nc(-c4cnn(C)c4)cc4nccn34)cn2)C1` [Example 75, 2-(1-(but-2-ynyl)-3-(4-(7-(1-methyl-1H-pyrazol-4-yl)imidazo[1,2-c]pyrimidin-5-yl)-1H-pyrdzol-1-yl)azetidin-3-yl)acetonitrile] yielded an IC50 [1] of over 1000 nM, an IC50 [2] of 100 to 1000 nM and an IC50 [3] of over 1000 nM. It also gave an IC50 [4] of over 1000 nM.
Work on `Cn1cc(-c2cc3nccn3c(-c3cnn(C4(CC#N)CCCC4)c3)n2)cn1` [Example 23, 2-(1-(4-(7-(1-methyl-1H-pyrazol-4-yl)imidazo[1,2-c]pyrimidin-5-yl)-1H-pyrazol-1-yl)cyclopentyl)acetonitrile] yielded an IC50 [1] of 100 to 1000 nM, an IC50 [2] of 10 to 100 nM and an IC50 [3] of 100 to 1000 nM. It also gave an IC50 [4] of over 1000 nM.
With `CC(C)OCCn1cc(-c2cc3nccn3c(-c3cnn(C(CC#N)C4CC4)c3)n2)cn1` (centres unmarked) [Example 41, 3-cyclopropyl-3-(4-(7-(1-(2-isopropoxyethyl)-1H-pyrazol-4-yl)imidazo[1,2-c]pyrimidin-5-yl)-1H-pyrazol-1-yl]propanenitrile] the IC50 [1] was 100 to 1000 nM, the IC50 [2] was 10 to 100 nM and the IC50 [3] was 10 to 100 nM. For the same compound, the IC50 [4] was over 1000 nM.
`CC(C)n1cc(-c2cc3nccn3c(-c3cnn(C(CC#N)C4CC4)c3)n2)cn1` (centres unmarked) [Example 34, 3-Cyclopropyl-3-(4-(7-(1-isopropyl-1H-pyrazol-4-yl)imidazo[1,2-c]pyrimidin-5-yl)-1H-pyrazol-1-yl)propanenitrile] showed an IC50 [1] of 100 to 1000 nM, an IC50 [2] of under 10 nM and an IC50 [3] of 10 to 100 nM. It also gave an IC50 [4] of 100 to 1000 nM.
In the case of `N#CCC(C1CC1)n1cc(-c2nc(C(=O)NC3CCCCC3)cc3nccn23)cn1` (centres unmarked) [Example 123, 5-(1-(2-Cyano-1-cyclopropylethyl)-1H-pyrazol-4-yl)-N-cyclohexylimidazo[1,2-c]pyrimidine-7-carboxamide], the IC50 [1] is reported as over 1000 nM, the IC50 [2] is reported as 100 to 1000 nM and the IC50 [3] is reported as over 1000 nM. The IC50 [4] was over 1000 nM.
`Cn1cc(-c2cc3nccn3c(-c3cnn(C4(CC#N)CN(S(=O)(=O)CCC(F)(F)F)C4)c3)n2)cn1` [Example 98, 2-(3-(4-(7-(1-methyl-1H pyrazol-4-yl)imidazo[1,2-c]pyrimidin-5-yl)-1H-pyrazol-1-yl)-1-(3,3,3-trifluoropropylsulfonyl)azetidin-3-yl)acetonitrile] gave an IC50 [1] of 100 to 1000 nM, an IC50 [2] of under 10 nM and an IC50 [3] of 10 to 100 nM. It also gave an IC50 [4] of over 1000 nM.
`C[Si](C)(C)CCOCn1cc(-c2cc3nccn3c(-c3cnn(C(CC#N)C4CC4)c3)n2)cn1` (centres unmarked) [Example 32, 3-cyclopropyl-3-(4-(7-(1-((2-(trimethylsilyl)ethoxy)methyl)-1H-pyrazol-4-yl)imidazo[1,2-c]pyrimidin-5-yl)-1H-pyrazol-1-yl)propanenitrile] gave an IC50 [1] of 100 to 1000 nM, an IC50 [2] of 10 to 100 nM and an IC50 [3] of 10 to 100 nM. For the same compound, the IC50 [4] was 100 to 1000 nM.
`Cn1cc(-c2cc3nccn3c(-c3cnn(C4(CC#N)CN(S(=O)(=O)C(F)(F)F)C4)c3)n2)cn1` [Example 96, 2-(3-(4-(7-(1-Methyl-1H-pyrazol-4-yl)imidazo[1,2-c]pyrimidin-5-yl)-1H-pyrazol-1-yl)-1-(trifluoromethylsulfonyl)azetidin-3-yl)acetonitrile] showed an IC50 [1] of under 10 nM, an IC50 [2] of under 10 nM and an IC50 [3] of under 10 nM. It also gave an IC50 [4] of 100 to 1000 nM.
In the case of `Cn1cc(-c2cc3nccn3c(-c3cnn(C4(CC#N)CN(S(=O)(=O)C5CC5)C4)c3)n2)cn1` [Example 95, 2-(1-(cyclopropylsulfonyl)-3-(4-(7-(1-methyl-1H-pyrazol-4-yl)imidazo[1,2-c]pyrimidin-5-yl)-1H-pyrazol-1-yl)azetidin-3-yl)acetonitrile], the IC50 [1] is reported as 10 to 100 nM, the IC50 [2] is reported as under 10 nM and the IC50 [3] is reported as 10 to 100 nM. For the same compound, the IC50 [4] was over 1000 nM.
